The values that follow come from article PMC8291071, “Tertiary sulphonamide derivatives as dual acting small molecules that inhibit LSD1 and suppress tubulin polymerisation against liver cancer” (Journal of Enzyme Inhibition and Medicinal Chemistry, 2021).

Structures are written as SMILES. Entries after “also recorded” stand apart in the source; their conditions may differ. A value given as a limit tells only on which side of the number the result lay.

The subject of series [1] is HepG-2. The experiment in a line: MTT antiproliferative assay, HepG-2 cells. The class given is cell-based. Particulars: for IC50: Homo sapiens, HepG2, 48 h, MTT. How it is done:
(§1) Cell lines were purchased from Servicebio (Wuhan, China) and cultured in RPMI1640 (Servicebio, Wuhan, China) with 10% foetal bovine serum and 1% antibiotic agent (Servicebio, Wuhan, China) at 37 °C. With the treatment of synthetic compounds, cells were cultured for 48 h and added with MTT solution (Servicebio, Wuhan, China). After 4 h, medium was removed and DMSO was added to culture for 30 min. Finally, the absorbance value was obtained by a microplate reader (Multiskan Sky, Thermo Fisher, Shanghai, China).
(§2) In order to discover the potent anti-liver cancer agents, all tertiary sulphonamide analogues were evaluated for their anticancer activity in vitro against liver cancer cell lines ([…], HepG-2 and Bel-7402). Cell lines were treat with different tertiary sulphonamide derivatives 16 and 17a∼17f for 48 h to obtain IC50 values. In this work, 5-fluorouracil as an well-known antitumor drug was selected as the control agent.
A general note: Tetrazolium dyes change colour on reduction, which living cells bring about.

The subject of series [2] is SNU-475. The experiment in a line: MTT antiproliferative assay, SNU-475 cells. The class given is cell-based. Particulars: Homo sapiens, 48 h.
In series [3] the test system is Bel-7402. The experiment in a line: MTT antiproliferative assay, Bel-7402 cells. The class given is cell-based. Particulars: Homo sapiens, 48 h. The procedure:
as §1, §2

For series [4], the system named is interphase microtubules in Bel-7402 cells. The experiment in a line: Immunofluorescence of interphase microtubules in Bel-7402 cells. The format is cell-based. Particulars: 50 nM. How it is done:
Liver cancer Bel-7402 cells were cultured on the slices for 24 h and treated with tertiary sulphonamide derivatives for 48 h. Then, Bel-7402 cells were fixed by 4% paraformaldehyde solution (Shanghai Yuanye Bio-Technology Co., Ltd, Shanghai, China) for 30 min. Bovine albumin was used to block the system for 30 min. Bel-7402 cells were cultured with β-tubulin and incubated for 24 h at 4 °C. Finally, 4′,6-diamidino-2-phenylindole (DAPI) was added in a dark room to obtain images of immunostaining (Confocal laser scanning microscope, FV3000RS, Beijing, China).

Series [5] relates to H3K9me1/2 in Bel-7402 cells. The experiment in a line: Western blot of H3K9me1 and H3K9me2 in Bel-7402 cells. The class given is cell-based. The following applies: 48 h. The procedure: Liver cancer Bel-7402 cells were cultured for 24 h and treated with tertiary sulphonamide derivative 17a for 48 h at 37 °C. Protein lysates were harvested from the treated Bel-7402 cells. Nitrocellulose membrane was used to perform polyacrylamide gelelectrophoresis. H3K9me1 and H3K9me2 (Servicebio, Wuhan, China) were treated with the nitrocellulose membrane at 4 °C for 12 h. GAPDH as the secondary antibody was incubated for 1 h at room temperature (Shanghai Yuanye Bio-Technology Co., Ltd, Shanghai, China).
(§3) LSD1 could specifically demethylate mono- and dimethyl-lysine on histone H3 H3K9me1/2), leading to the transcriptional repression or activation of target genes. Thus, the expression levels of H3K9me1/2 in liver cancer Bel-7402 cells were explored with the treatment of 17a. […] The migration effects of tertiary sulphonamide derivative 17a were also investigated.

For series [6], the system named is Bel-7402&shControl cells. The experiment in a line: Cell viability of control Bel-7402 cells. The format is cell-based.
For series [7], the system named is heart, liver, spleen, lung and kidney. The experiment in a line: Haematoxylin & eosin staining of organs of treated mice. The following applies: 60 mg/kg, intragastric, 21 days, H&E staining.
Method: (§4) Xenograft models using Bel-7402 cells was established in nude mice (Jiangsu ALF Biotechnology Co., LTD, Jiangsu, China). Then, mice-bearing tumours were divided into two groups (vehicle and 60 mg/kg group). […] Tumour volume and tumour weight of treated mice were measured.
(§5) Xenograft tumours were produced by the subcutaneous implantation of liver cancer Bel-7402 cells.
The test system of series [8] is L-02 cells. Briefly: Cytotoxicity against normal liver cell line L-02. The class given is cell-based. How it is done:
as §1

Series [9] relates to Bel-7402 cells. Briefly: Transwell migration assay. The format is cell-based. Particulars: 48 h. The procedure: Liver cancer Bel-7402 cells were cultured in the upper chambers of a Transwell 24-well plate (Servicebio, Wuhan, China) for 24 h. 1% FBS and 20% FBS were added into the upper chambers and lower chambers respectively. […] Then, all medium was removed and Bel-7402 cells were fixed with ethanol for 30 min. Finally, Bel-7402 cells from the upper chambers were stained with haematoxylin solution (Servicebio, Wuhan, China) for 30 min.
as §3

The test system of series [10] is Bel-7402 xenograft. Briefly: Bel-7402 xenograft antitumour study. The following applies: 60 mg/kg, intragastric administration, 21 days.
Method: as §4, §5
Series [11] relates to tubulin. The experiment in a line: Inhibitory activity of tubulin polymerisation in vitro. The format is biochemical. Particulars: fluorescence intensity.
Series [12] concerns the target LSD1 (Homo sapiens, UniProt O60341). The experiment in a line: LSD1 enzymatic assay. The following applies: for inhibition at 0.2 µM: read-out: inhibitory rate against LSD1.

A word on the IC50: it is the concentration that inhibits the measured activity by half. As to `O=c1[nH]cc(F)c(=O)[nH]1` [5-Fluorouracil, reference compound], the IC50 came out at 12.2 ± 0.68 µM in series [1], 26.47 ± 0.16 µM in series [2] and 15.1 ± 1.28 µM in series [3].

By melting point is commonly meant the temperature of the solid-liquid transition. Compound `COc1ccc(S(=O)(=O)N(CCBr)c2cc(OC)c(OC)c(OC)c2)cc1` [Compound 16, N-(2-bromoethyl)-4-methoxy-N-(3,4,5-trimethoxyphenyl)benzenesulfonamide] returned a melting point of 116 to 118 °C. Moreover, the IC50 in series [1] was above 20 µM. The IC50 in series [2] was above 20 µM. This compound showed an IC50 in series [3] above 20 µM.

For the compound `COc1ccc(S(=O)(=O)N(CCSC(=S)N2CCN(C)CC2)c2cc(OC)c(OC)c(OC)c2)cc1` [Compound 17a, 2-((4-Methoxy-N-(3,4,5-trimethoxyphenyl)phenyl)sulfonamido)ethyl-4-methylpiperazine-1-carbodithioate], the “depolymerisation of interphase microtubules” value (“depolymerisation” below) in [4] was “more pronounced depolymerisation effects”. For the same compound, the “expression levels of H3K9me1 and H3K9me2” value in series [5] was “increased the expression levels of H3K9me1 and H3K9me2”. Moreover, the IC50 in series [1] was found to be 0.57 ± 0.07 µM; in series [2], 0.73 ± 0.16 µM; in series [3] it was 0.32 ± 0.08 µM. Besides, in series [6], the “cell viability of Bel-7402&shControl cells” value is listed as “potently inhibited the cell viability”. In [7], the “toxicity of organs (heart, liver, spleen, lung and kidney)” value is “no apparent toxicity of organs”. For the same compound, in [8], the “cytotoxicity against L-02 cells” value is above 64 µM. Besides, in series [9], the “migration of Bel-7402 cells” value is “concentration-dependently inhibited migration; also recorded: significantly inhibited the migration”. The “reduction of tumour weight” value in series [10] is recorded as 42.97%. Further, the tumour growth result in series [10] is “effectively inhibited the tumour growth in vivo”.

Take `CCN1CCN(C(=S)SCCN(c2cc(OC)c(OC)c(OC)c2)S(=O)(=O)c2ccc(OC)cc2)CC1` [Compound 17b, 2-((4-Methoxy-N-(3,4,5-trimethoxyphenyl)phenyl)sulfonamido)ethyl-4-ethylpiperazine-1-carbodithioate]: the melting point was in the range of 150 to 152 °C. Further, the “depolymerisation” value in series [4] was “more pronounced depolymerisation effects”. Moreover, the IC50 in [11] came to 2.13 µM. For the same compound, in series [1] (17b VS. 17c), the “fold activity increase against HepG-2 cells” value is “over 8 fold”. This compound also yielded an IC50 in series [1] of 1.03 ± 0.28 µM. In series [8], the “cytotoxicity against L-02 cells” value is above 64 µM. The compound further gave an IC50 in series [2] of 2.35 ± 0.7 µM. In [3], the IC50 is 1.37 ± 0.16 µM. In addition, half-maximal inhibition in series [12] (IC50) was put at 0.127 µM.

In the case of `COc1ccc(S(=O)(=O)N(CCSC(=S)N2CCN(CCO)CC2)c2cc(OC)c(OC)c(OC)c2)cc1` [Compound 17c, 2-((4-Methoxy-N-(3,4,5-trimethoxyphenyl)phenyl)sulfonamido)ethyl-4–(2-hydroxyethyl)piperazine-1-carbodithioate], the melting point is 146 to 148 °C. Inhibition in [1] was half-maximal at 9.17 ± 2.18 µM (IC50). The same compound showed an IC50 in series [2] of 10.8 ± 1.01 µM. This compound also yielded an IC50 in series [3] of 7.09 ± 1.33 µM.

Compound `COc1ccc(S(=O)(=O)N(CCSC(=S)N2CCN(C(C)=O)CC2)c2cc(OC)c(OC)c(OC)c2)cc1` [Compound 17d, 2-((4-Methoxy-N-(3,4,5-trimethoxyphenyl)phenyl)sulfonamido)ethyl-4-acetylpiperazine-1-carbodithioate] registered a melting point of 152 to 154 °C. Also, the IC50 in series [11] stood at 1.78 µM. 3.29 ± 0.84 µM corresponded to half-maximal inhibition in series [1] (IC50). The compound also yielded an IC50 in series [2] of 5.06 ± 0.68 µM. In series [3], half-maximal inhibition (IC50) required 1.58 ± 1.02 µM. For the same compound, in series [12], the IC50 was above 0.2 µM and the inhibition at 0.2 µM was determined as 46%. For the same compound, in series [12] (methyl group replaced with acetyl group (17d VS. 17f as printed)), the “fold activity loss against LSD1” value was “over 3 fold”.

The compound `COc1ccc(S(=O)(=O)N(CCSC(=S)N2CCN(c3ccc(F)cc3)CC2)c2cc(OC)c(OC)c(OC)c2)cc1` [Compound 17e, 2-((4-Methoxy-N-(3,4,5-trimethoxyphenyl)phenyl)sulfonamido)ethyl-4–(4-fluorophenyl)piperazine-1-carbodithioate] had a melting point of 166 to 168 °C. The IC50 in [1] was 7.57 ± 0.96 µM. Also, it took 6.17 ± 1.05 µM to reach half-maximal inhibition in series [2] (IC50). In series [3], this compound came in with an IC50 of 9.18 ± 1.32 µM.

As to `COc1ccc(S(=O)(=O)N(CCSC(=S)N2CCN(C(=O)OC(C)(C)C)CC2)c2cc(OC)c(OC)c(OC)c2)cc1` [Compound 17f, Tert-butyl-4-(((2-((4-methoxy-N-(3,4,5-trimethoxyphenyl)phenyl)sulfonamido)ethyl)thio)carbonothioyl)piperazine-1-carboxylate], the melting point is 162 to 164 °C. Besides, the “depolymerisation” value in series [4] was “moderately depolymerised interphase microtubules”. This compound registered an IC50 in [11] of 3.07 µM. The same compound displayed an IC50 in [1] of 6.67 ± 1.25 µM. Besides, half-maximal inhibition in series [2] (IC50) required 4.46 ± 1.38 µM. The compound further returned an IC50 in [3] of 2.32 ± 1.63 µM. For the same compound, in series [12], the IC50 is above 0.2 µM and the inhibition at 0.2 µM is 35.7%.
